Measured values from patent US8003666B2, “Hydrate for medical purposes” (priority 2006, dated 2011).
Values after ≈ are worked out from the molar mass of the structure shown.

Test system: Mycobacterium tuberculosis (bacteria resistant to quinolone)
Test: microbe, parasite or virus in culture
Format: cell-based

SMILES	MIC (strain 1 (QR-3)) [µg/mL]	MIC (strain 2 (QR-6)) [µg/mL]	MIC (strain 3 (QR-1)) [µg/mL]	MIC (strain 4 (QR-9)) [µg/mL]	MIC (strain MDR 1) [µg/mL]	MIC (strain MDR 3) [µg/mL]	MIC (strain MDR 4) [µg/mL]	MIC (strain MDR 5) [µg/mL]	MIC (strain MDR 7) [µg/mL]	MIC (strain MDR 9) [µg/mL]	MIC (strain MDR 12) [µg/mL]	MIC (strain s 1) [µg/mL]
COc1c(N2CC3(CC3)[C@](C)(N)C2)c(F)cc2c(=O)c(C(=O)O)cn([C@@H]3C[C@@H]3F)c12 [Hemihydrate, 7-[(7S)-7-Amino-7-methyl-5-azaspiro[2.4]heptan-5-yl]-6-fluoro-1-[(1R,2S)-2-fluorocyclopropyl]-8-methoxy-1,4-dihydro-4-oxoquinoline-3-carboxylic acid hemihydrate]	0.125	0.5	0.25	0.25	0.125	0.125	0.25	0.5	0.125	0.125	0.125	1
CO[C@H]1/C=C/O[C@@]2(C)Oc3c(C)c(O)c4c(O)c(c(/C=N/N5CCN(C)CC5)c(O)c4c3C2=O)NC(=O)/C(C)=C\C=C\[C@H](C)[C@H](O)[C@@H](C)[C@@H](O)[C@@H](C)[C@H](OC(C)=O)[C@@H]1C [RFP, rifampicin]	> 128	> 128	128 (≈ 156 µM)	> 128	16 (≈ 19.4 µM)	128 (≈ 156 µM)	64 (≈ 77.8 µM)	32 (≈ 38.9 µM)	> 128	128 (≈ 156 µM)	128 (≈ 156 µM)	16 (≈ 19.4 µM)
